Molecules are shown by their SMILES. Where two headings read alike, the source gives them in different places.

Assay [1] has as its system Puccinia triticina; Synonym: Puccinia recondite f. Sp. Tritici. Kind of assay: Wheat Brown Rust (PUCCRT) disease control. As to conditions: Puccinia triticina, topical; for pest or weed control at 100 ppm: rate 100 ppm. Format: in vivo. In short, it runs like this:
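Brown rust on first-leaf Yuma wheat: spore inoculation before or after spray application (acetone/Triton X-100 solution, or EC with Trycol in track spray), overnight 100% RH at 22 °C, disease developed at 24 °C. Severity scored 0–100% and converted to percent control against untreated.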

The subject of assay [2] is Mycosphaerella graminicola; Anamorph: Septoria tritici. The assay can be described thus: Leaf Blotch of Wheat (SEPTTR) disease control. As to conditions: Zymoseptoria tritici; for pest or weed control at 100 ppm: rate 100 ppm. It counts as in vivo. The method, boiled down:
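Percent disease control is derived from Septoria tritici leaf blotch severity (0 to 100 percent) on treated versus untreated wheat seedlings. Plants get fungicide spray to run-off, with inoculation either preceding or following application, then humid incubation at 20° C.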

Setting [3] is: 24 h, 1 Day Protectant, read-out: PUCCRT 1 DP disease control.
Setting [4] is: 72 h, 3 Day Curative, read-out: PUCCRT 3 DC disease control.
Where [5] appears, read: 24 h, 1 Day Protectant, read-out: SEPTTR 1 DP disease control.
[6] abbreviates: 72 h, 3 Day Curative, read-out: SEPTTR 3 DC disease control.
[7] abbreviates: 24 h, 1 Day Protectant, rate 121.5 g/H, read-out: PUCCRT 1 DP disease control.
[8] abbreviates: 72 h, 3 Day Curative, rate 121.5 g/H, read-out: PUCCRT 3 DC disease control.
Where [9] appears, read: 24 h, 1 Day Protectant, rate 121.5 g/H, read-out: SEPTTR 1 DP disease control.
[10] abbreviates: 72 h, 3 Day Curative, rate 121.5 g/H, read-out: SEPTTR 3 DC disease control.

With `COc1ccnc(C(=O)N[C@H]2CCC[C@H](Cc3ccccc3)[C@@H](OC3CCCC3)[C@H](C)OC2=O)c1O` [Compound F22], the pest or weed control at 100 ppm in assay [1] (setting [3]), in assay [1] (setting [4]), in assay [2] (setting [5]) and in assay [2] (setting [6]) was 80 to 100% throughout.
Regarding `COc1ccnc(C(=O)N[C@H]2CCC[C@H](Cc3ccccc3)[C@@H](O)[C@H](C)OC2=O)c1O` [Compound F40], the pest or weed control at 100 ppm in assay [1] (setting [3]) was in the range of 80 to 100%; in assay [1] (setting [4]), 0 to 80%; in assay [2] (setting [5]), 0 to 80%; in assay [2] (setting [6]), 0 to 80%.
Turning to `COc1ccnc(C(=O)N[C@H]2CCC[C@H](Cc3ccc(F)cc3)[C@@H](Oc3ccccc3)[C@H](C)OC2=O)c1OC(C)=O` [Compound F68], the pest or weed control at 100 ppm in assay [1] (setting [3]), in assay [1] (setting [4]), in assay [2] (setting [5]) and in assay [2] (setting [6]) was 80 to 100% in each case. Besides, the pest or weed control at 121.5 g/ha in assay [1] (setting [7]) is 80 to 100%; in assay [1] (setting [8]) it was 0 to 80%; in assay [2] (setting [9]), 80 to 100%; in assay [2] (setting [10]) it was 80 to 100%.
Regarding `CCO[C@@H]1[C@@H](Cc2ccccc2)CCC[C@H](NC(=O)c2nccc(OC)c2OC(=O)CCOC)C(=O)O[C@H]1C` [Compound F197], the pest or weed control at 121.5 g/ha fell in the range of 80 to 100% in assay [1] (24 h, Wheat Brown Rust, 1 Day Protectant, rate 121.5 g/H (low volume application), read-out: Disease control PUCCRT 1 DP); 80 to 100% in assay [1] (72 h, Wheat Brown Rust, 3 Day Curative, rate 121.5 g/H (low volume application), read-out: Disease control PUCCRT 3 DC); 80 to 100% in assay [2] (24 h, Wheat Leaf Blotch, 1 Day Protectant, rate 121.5 g/H (low volume application), read-out: Disease control SEPTTR 1 DP); 80 to 100% in assay [2] (72 h, Wheat Leaf Blotch, 3 Day Curative, rate 121.5 g/H (low volume application), read-out: Disease control SEPTTR 3 DC).
Turning to `CCCO[C@@H]1[C@@H](CC2CCCC2)CCC[C@H](NC(=O)c2nccc(OC)c2OC(C)=O)C(=O)O[C@H]1C` [Compound F74], the pest or weed control at 100 ppm in assay [1] (setting [3]), in assay [1] (setting [4]), in assay [2] (setting [5]) and in assay [2] (setting [6]) was 80 to 100% in each case. Further, the pest or weed control at 121.5 g/ha is 80 to 100% in assay [1] (setting [7]), 0 to 80% in assay [1] (setting [8]), 80 to 100% in assay [2] (setting [9]) and 80 to 100% in assay [2] (setting [10]).
For `COc1ccnc(C(=O)N[C@H]2CCC[C@H](CCC(C)C)[C@@H](OCCCC(F)(F)F)[C@H](C)OC2=O)c1OCOC(=O)C(C)C` [Compound F150], the pest or weed control at 100 ppm in assay [1] (setting [3]), in assay [1] (setting [4]), in assay [2] (setting [5]) and in assay [2] (setting [6]) was 80 to 100% in each case. The pest or weed control at 121.5 g/ha in assay [1] (setting [7]) was in the range of 80 to 100%; in assay [1] (setting [8]), 0 to 80%; in assay [2] (setting [9]), 80 to 100%; in assay [2] (setting [10]), 80 to 100%.
Turning to `COc1ccnc(C(=O)N[C@H]2CCC[C@H](CCSC)[C@@H](OCC(C)C)[C@H](C)OC2=O)c1OCOC(C)=O` [Compound F131], the pest or weed control at 100 ppm in assay [1] (setting [3]), in assay [1] (setting [4]), in assay [2] (setting [5]) and in assay [2] (setting [6]) was 80 to 100% each time. Further, the pest or weed control at 121.5 g/ha lay in the range of 80 to 100% in assay [1] (setting [7]), 80 to 100% in assay [1] (setting [8]), 0 to 80% in assay [2] (setting [9]) and 80 to 100% in assay [2] (setting [10]).
For `COc1ccc(C[C@H]2CCC[C@H](NC(=O)c3nccc(OC)c3OC(C)=O)C(=O)O[C@@H](C)[C@@H]2OCC2CC2)cc1` [Compound F72], the pest or weed control at 100 ppm in assay [1] (setting [3]), in assay [1] (setting [4]), in assay [2] (setting [5]) and in assay [2] (setting [6]) was 80 to 100% each time. The pest or weed control at 121.5 g/ha in assay [1] (setting [7]) lay within 80 to 100%; in assay [1] (setting [8]), 0 to 80%; in assay [2] (setting [9]), 80 to 100%; in assay [2] (setting [10]), 80 to 100%.
Turning to `COc1ccnc(C(=O)N[C@H]2CCC[C@H](CC3CCCC3)[C@@H](OCC(C)C)[C@H](C)OC2=O)c1O` [Compound F37], the pest or weed control at 100 ppm in assay [1] (setting [3]) was in the range of 0 to 80%; in assay [1] (setting [4]), 0 to 80%; in assay [2] (setting [5]) it was 80 to 100%.
For `COc1ccnc(C(=O)N[C@H]2CCC[C@H](Cc3ccccc3)[C@@H](OCC(C)C)[C@H](C)OC2=O)c1O` [Compound F18], the pest or weed control at 100 ppm in assay [1] (setting [3]) was 80 to 100%; in assay [1] (setting [4]), 0 to 80%; in assay [2] (setting [5]) it was 80 to 100%; in assay [2] (setting [6]), 80 to 100%.
As for `COc1ccnc(C(=O)N[C@H]2CCC[C@H](CC3CCCCC3)[C@@H](OCC3CC3)[C@H](C)OC2=O)c1O` [Compound F9, N-((3S,7R,8R,9S)-7-(cyclohexylmethyl)-8-(cyclopropylmethoxy)-9-methyl-2-oxooxonan-3-yl)-3-hydroxy-4-methoxypicolinamide], the pest or weed control at 100 ppm in assay [1] (setting [3]), in assay [1] (setting [4]), in assay [2] (setting [5]) and in assay [2] (setting [6]) was 80 to 100% each time.
As to `CCOCC(=O)Oc1c(OC)ccnc1C(=O)N[C@H]1CCC[C@H](CCF)[C@@H](OCC(C)C)[C@H](C)OC1=O` [Compound F184], the pest or weed control at 100 ppm in assay [1] (setting [3]), in assay [1] (setting [4]), in assay [2] (setting [5]) and in assay [2] (setting [6]) was 80 to 100% each time.
As to `CCOCC(=O)OCOc1c(OC)ccnc1C(=O)N[C@H]1CCC[C@H](Cc2ccc(OC)cc2)[C@@H](OCC(C)C)[C@H](C)OC1=O` [Compound F179], the pest or weed control at 100 ppm in assay [1] (setting [3]), in assay [1] (setting [4]), in assay [2] (setting [5]) and in assay [2] (setting [6]) was 80 to 100% throughout. In addition, the pest or weed control at 121.5 g/ha in assay [1] (setting [7]) lay within 80 to 100%; in assay [1] (setting [8]), 0 to 80%; in assay [2] (setting [9]) it was 80 to 100%; in assay [2] (setting [10]) it was 80 to 100%.
On to `CCCO[C@@H]1[C@@H](Cc2ccccc2)CCC[C@H](NC(=O)c2nccc(OC)c2O)C(=O)O[C@H]1C` [Compound F21], for which the pest or weed control at 100 ppm in assay [1] (setting [3]) lay within 80 to 100%; in assay [1] (setting [4]) it was 80 to 100%; in assay [2] (setting [5]) it was 0 to 80%; in assay [2] (setting [6]), 0 to 80%.
For the compound `COc1ccnc(C(=O)N[C@H]2CCC[C@H](C)[C@@H](OCc3ccccc3)[C@H](C)OC2=O)c1OCOC(C)=O` [Compound F125], the pest or weed control at 100 ppm in assay [1] (setting [3]), in assay [1] (setting [4]), in assay [2] (setting [5]) and in assay [2] (setting [6]) was 80 to 100% in each case. Also, the pest or weed control at 121.5 g/ha in assay [1] (setting [7]), in assay [1] (setting [8]), in assay [2] (setting [9]) and in assay [2] (setting [10]) was 80 to 100% each time.
Turning to `C=CCO[C@@H]1[C@@H](Cc2ccc(F)cc2)CCC[C@H](NC(=O)c2nccc(OC)c2O)C(=O)O[C@H]1C` [Compound F12], the pest or weed control at 100 ppm in assay [1] (setting [3]) is 0 to 80%; in assay [1] (setting [4]), 80 to 100%; in assay [2] (setting [5]), 80 to 100%; in assay [2] (setting [6]), 80 to 100%.
As to `CCOCC(=O)OCOc1c(OC)ccnc1C(=O)N[C@H]1CCC[C@H](CCC(C)C)[C@@H](OCCCC(F)(F)F)[C@H](C)OC1=O` [Compound F162], the pest or weed control at 100 ppm in assay [1] (setting [3]), in assay [1] (setting [4]), in assay [2] (setting [5]) and in assay [2] (setting [6]) was 80 to 100% each time. Also, the pest or weed control at 121.5 g/ha in assay [1] (setting [7]) fell in the range of 80 to 100%; in assay [1] (setting [8]), 0 to 80%; in assay [2] (setting [9]) it was 80 to 100%; in assay [2] (setting [10]), 80 to 100%.
`CCOCC(=O)OCOc1c(OC)ccnc1C(=O)N[C@H]1CCC[C@H](CCC(C)C)[C@@H](Oc2ccccc2)[C@H](C)OC1=O` [Compound F158]: the pest or weed control at 100 ppm in assay [1] (setting [3]), in assay [1] (setting [4]), in assay [2] (setting [5]) and in assay [2] (setting [6]) was 80 to 100% each time. Besides, the pest or weed control at 121.5 g/ha was in the range of 80 to 100% in assay [1] (setting [7]), 0 to 80% in assay [1] (setting [8]), 80 to 100% in assay [2] (setting [9]) and 80 to 100% in assay [2] (setting [10]).
For `COCC[C@H]1CCC[C@H](NC(=O)c2nccc(OC)c2O)C(=O)O[C@@H](C)[C@@H]1OCC(C)C` [Compound F47], the pest or weed control at 100 ppm in assay [1] (setting [3]), in assay [1] (setting [4]), in assay [2] (setting [5]) and in assay [2] (setting [6]) was 80 to 100% throughout.

These data come from patent publication US9265253B2, “Use of macrocyclic picolinamides as fungicides” (DOW AGROSCIENCES LLC, priority 2013, dated 2016).
